Experimental data reported in paper PMC3753754, “Andrographis paniculata Extract and Andrographolide Modulate the Hepatic Drug Metabolism System and Plasma Tolbutamide Concentrations in Rats” (Evidence-based Complementary and Alternative Medicine : eCAM, 2013).

Tests used:
[1] = Pharmacokinetics of tolbutamide in control, APE-pretreated and andrographolide-pretreated rats; assay type: in vivo, Sprague-Dawley rats; details: rats, 2 g/kg/day APE or 50 mg/kg/day andrographolide for 5 days before 20 mg/kg tolbutamide
Experimental: Seven-week-old male Sprague-Dawley rats cannulated in the jugular vein were purchased from the Bio LASCO Experimental Animal Center (Taipei, Taiwan). The animals were fed a standard rat diet and were randomly assigned into control, APE-treated, and andrographolide-treated groups (n = 5). Rats were housed in plastic cages in a room kept at 23 ± 1°C and 60 ± 5% relative humidity with a 12-hour light and dark cycle. Food and drinking water were available ad libitum. Control rats were orally administered methyl cellulose. […] After the 5th daily dose, rats were deprived of food overnight. On day 6, a 20 mg/kg oral dose of tolbutamide, as a solution in Cremophor EL (polyoxyl 35 hydrogenated castor oil, Sigma)/ethanol/water (30/10/60, v/v/v), was administered to each rat. After the administration of tolbutamide, serial blood samples were collected up to 12 h after dosing from each rat. The animals were then killed by exsanguination, and the livers were collected.
Tolbutamide was prepared in a solution of Cremophor EL/ethanol/water (30/10/60, v/v/v). After administration, blood samples (~200 μL) were collected from the tail vein of each rat at 0.25, 0.5, 1, 2, 4, 8, and 12 h after dosing. Plasma was separated from blood by centrifugation (4000 ×g for 20 min at 4°C). An aliquot of 50 μL plasma was mixed with 100 μL acetonitrile and then centrifuged at 10,000 ×g for 15 min at 4°C. The supernatant was used to determine the concentration of tolbutamide by LC/MS. Calibration standards of tolbutamide were prepared by serial dilution of a tolbutamide stock solution with blank plasma, yielding final concentrations of tolbutamide ranging from 1 to 300 μg/mL of plasma.
The HPLC system consisted of an Agilent 1100 series LC System (Palo Alto, CA) and an Agilent Zorbax Eclipse XDB-C8 column (3 μm, 3.0 mm × 150 mm), interfaced to an Agilent MSD mass spectrometer equipped with an electrospray ionization source. Column temperature was set at 25°C. The initial mobile phase composition was 30% acetonitrile containing 10 mM ammonium acetate (solvent A) and 70% of 0.1% formic acid (solvent B). The following gradient system was used: 30% A to 50% A (0-1 min), 50% A to 98% A (1–3 min), 98% A (3–9 min), 98% A to 30% A (9-10 min), and 30% A (10–15 min). The flow rate was 0.5 mL/min. Sample injection volume was 10 μL. The MS data acquisition was via selected ion monitoring. The positive ion of the testing compound was selected, and the peak size was measured. The area under the plasma tolbutamide concentration versus time curve (AUC) was calculated by using the trapezoidal method.

[2] = target: T1, pregnane X receptor (PXR) (Rattus norvegicus, UniProt Q9R1A7); assay: EMSA of liver nuclear protein binding to DR4 consensus sequence; assay type: in vivo; details: APE or andrographolide for 5 days
T1 construct: from tissue; host or cells: crude liver nuclear extract of treated Sprague-Dawley rats
T1 sequence (Q9R1A7 1-431): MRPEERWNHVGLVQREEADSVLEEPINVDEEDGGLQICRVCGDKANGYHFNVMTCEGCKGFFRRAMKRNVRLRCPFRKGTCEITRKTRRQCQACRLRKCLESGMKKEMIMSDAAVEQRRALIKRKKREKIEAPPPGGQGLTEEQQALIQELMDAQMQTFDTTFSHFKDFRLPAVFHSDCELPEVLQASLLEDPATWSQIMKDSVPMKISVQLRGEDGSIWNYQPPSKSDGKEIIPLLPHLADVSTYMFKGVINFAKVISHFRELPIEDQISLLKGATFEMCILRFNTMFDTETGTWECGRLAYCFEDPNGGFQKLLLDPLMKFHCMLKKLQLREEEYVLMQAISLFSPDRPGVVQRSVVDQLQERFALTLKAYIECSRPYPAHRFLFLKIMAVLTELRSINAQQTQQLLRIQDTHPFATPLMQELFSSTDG
T1 sequence (Q05343 1-467 partner): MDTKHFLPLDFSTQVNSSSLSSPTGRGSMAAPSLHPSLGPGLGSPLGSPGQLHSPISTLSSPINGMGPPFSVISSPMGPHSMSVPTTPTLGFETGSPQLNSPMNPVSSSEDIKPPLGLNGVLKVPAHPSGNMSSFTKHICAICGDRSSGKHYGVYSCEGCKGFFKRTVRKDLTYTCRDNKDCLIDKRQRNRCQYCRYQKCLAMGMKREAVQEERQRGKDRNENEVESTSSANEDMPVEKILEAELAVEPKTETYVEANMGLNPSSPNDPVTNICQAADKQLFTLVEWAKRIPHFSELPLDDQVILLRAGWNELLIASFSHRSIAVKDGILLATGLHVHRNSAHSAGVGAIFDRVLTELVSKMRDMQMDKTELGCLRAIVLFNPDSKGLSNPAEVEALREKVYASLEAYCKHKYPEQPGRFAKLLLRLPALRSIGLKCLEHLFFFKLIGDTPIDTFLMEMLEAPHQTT
Experimental: Nuclear proteins of liver tissues were extracted as described by Tian et al. with some modifications. Briefly, 0.1 g of liver was homogenized (1 : 9, w/v) with 0.9 mL of ice-cold 10 mM HEPES buffer (pH 7.9) containing 10 mM KCl, 1 mM MgCl2, 0.1 mM EDTA, 0.5 mM dithiothreitol, 0.5 mM PMSF, 4 μg/mL leupeptin, and 20 μg/mL aprotinin. The homogenates were placed in an ice bath for 15 min and then centrifuged at 600 ×g for 10 min. Then, 100 μL of 10% Nonidet P-40 was added to the supernatant, and the samples were allowed to sit in an ice bath for 10 min. The supernatant was centrifuged at 5,000 ×g for 5 min. The pellet, containing crude nuclei, was resuspended in 100 μL of hypertonic buffer containing 10 mM HEPES, 400 mM KCl, 1 mM MgCl2, 0.1 mM EDTA, 0.5 mM dithiothreitol, 4 μg/mL leupeptin, 20 μg/mL aprotinin, 25% glycerol, and 0.5 mM PMSF at 4°C for 45 min. Nuclear proteins were then collected by centrifugation at 12,000 ×g for 15 min.
EMSA was performed according to the method reported previously. The LightShift Chemiluminescent EMSA Kit (Pierce, Rockford, IL) and synthetic biotin-labeled double-stranded consensus oligonucleotides of DR4 (5′-[…]-3′) and xenobiotic response element (XRE) (forward: 5′-[…]-3′) were used to measure pregnane X receptor (PXR) and aryl hydrocarbon receptor (AhR) nuclear protein-DNA-binding activity. […]

Binding activity of the DR4 consensus sequence to nuclear protein PXR [2]: enhanced
SMILES: C=C1CC[C@@H]2[C@](C)(CO)[C@H](O)CC[C@@]2(C)[C@@H]1C/C=C1/C(=O)OC[C@H]1O [andrographolide, Andrographolide]
Reduction of the AUC0–12 h of tolbutamide compared with controls [1]: 18%
